The target of test [1] is T1, horseradish peroxidase (HRP) tagged delF508-CFTR (Homo sapiens, UniProt P13569, DEL508-508).
T1 construct: expressed in transfected cells
The experiment in a line: Measurement of delF508-CFTR-HRP surface expression in CFBE41o- cells.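 On DelF508-CFTR-HRP Amax %: percent efficacy relative to reference corrector lumacaftor.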 Type of test: cell-based. The following applies: delF508-CFTR-HRP surface expression, CFBE41o- cells; for Emax: read-out: DelF508-CFTR-HRP Amax %; for EC50: read-out: DelF508-CFTR-HRP EC50. The procedure, abridged: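 CFBE41o- bronchial epithelial cells stably expressing delF508-CFTR with HRP in the fourth extracellular loop; expression induced 48h with 500 ng/mL doxycycline, then compounds added (top 10 μM, 10-point 3-fold series, ≤0.5% DMSO) for 24h at 37° C. Surface HRP measured by luminescence with cell-impermeant substrate; EC50 from logistic fit of triplicates, plate-normalized to lowest concentration; efficacy also relative to a reference corrector.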

In another test the target is T2, delF508-CFTR (Homo sapiens, UniProt P13569, DEL508-508).
T2 construct: functional activity of the CFTR channel (Chloride ion transport) in patient derived primary human bronchial epithelial cells; host or cells: patient-derived primary human bronchial epithelial cells (delF508-CFTR)
The experiment in a line: Measurement of delF508-CFTR functional activity in primary human bronchial epithelial cells (HBECs) using Multi-Transepithelial Clamp Circuit (MTECC-24) assay. The following applies: primary CF HBECs; for MTECC24 CFHBEC- Amax %: test compound added 24h before assay plus potentiator, relative to reference combination (2 μM corrector + 0.5 μM potentiator); for EC50: test compound added 24h before assay, in the presence of potentiator, mean of at least two replicates, read-out: MTECC24 CFHBEC- EC50. Type of test: cell-based. In short, it runs like this: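 Patient-derived primary delF508-CFTR HBECs, differentiated at air-liquid interface ~2 weeks, treated basolaterally with compound for 24 h, then apical and basolateral compound in HEPES pH 7.4 assay medium. Equivalent short-circuit current (Ieq) recorded on MTECC-24 with sequential amiloride, forskolin, potentiator and INH-172; normalized to 0.1% DMSO, EC50 from curve fit.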

The source of these data is patent US11066369B2, “N-(pyridin-2-yl)pyridine-sulfonamide derivatives and their use in the treatment of disease” (Novartis AG, priority 2016, dated 2021).

In general, EC50 refers to the midpoint of the concentration-response curve.

Where a name gives a salt, the structure may show the parent alone.

T1 sequence (P13569 with tags, fused parts or gaps DEL508-508): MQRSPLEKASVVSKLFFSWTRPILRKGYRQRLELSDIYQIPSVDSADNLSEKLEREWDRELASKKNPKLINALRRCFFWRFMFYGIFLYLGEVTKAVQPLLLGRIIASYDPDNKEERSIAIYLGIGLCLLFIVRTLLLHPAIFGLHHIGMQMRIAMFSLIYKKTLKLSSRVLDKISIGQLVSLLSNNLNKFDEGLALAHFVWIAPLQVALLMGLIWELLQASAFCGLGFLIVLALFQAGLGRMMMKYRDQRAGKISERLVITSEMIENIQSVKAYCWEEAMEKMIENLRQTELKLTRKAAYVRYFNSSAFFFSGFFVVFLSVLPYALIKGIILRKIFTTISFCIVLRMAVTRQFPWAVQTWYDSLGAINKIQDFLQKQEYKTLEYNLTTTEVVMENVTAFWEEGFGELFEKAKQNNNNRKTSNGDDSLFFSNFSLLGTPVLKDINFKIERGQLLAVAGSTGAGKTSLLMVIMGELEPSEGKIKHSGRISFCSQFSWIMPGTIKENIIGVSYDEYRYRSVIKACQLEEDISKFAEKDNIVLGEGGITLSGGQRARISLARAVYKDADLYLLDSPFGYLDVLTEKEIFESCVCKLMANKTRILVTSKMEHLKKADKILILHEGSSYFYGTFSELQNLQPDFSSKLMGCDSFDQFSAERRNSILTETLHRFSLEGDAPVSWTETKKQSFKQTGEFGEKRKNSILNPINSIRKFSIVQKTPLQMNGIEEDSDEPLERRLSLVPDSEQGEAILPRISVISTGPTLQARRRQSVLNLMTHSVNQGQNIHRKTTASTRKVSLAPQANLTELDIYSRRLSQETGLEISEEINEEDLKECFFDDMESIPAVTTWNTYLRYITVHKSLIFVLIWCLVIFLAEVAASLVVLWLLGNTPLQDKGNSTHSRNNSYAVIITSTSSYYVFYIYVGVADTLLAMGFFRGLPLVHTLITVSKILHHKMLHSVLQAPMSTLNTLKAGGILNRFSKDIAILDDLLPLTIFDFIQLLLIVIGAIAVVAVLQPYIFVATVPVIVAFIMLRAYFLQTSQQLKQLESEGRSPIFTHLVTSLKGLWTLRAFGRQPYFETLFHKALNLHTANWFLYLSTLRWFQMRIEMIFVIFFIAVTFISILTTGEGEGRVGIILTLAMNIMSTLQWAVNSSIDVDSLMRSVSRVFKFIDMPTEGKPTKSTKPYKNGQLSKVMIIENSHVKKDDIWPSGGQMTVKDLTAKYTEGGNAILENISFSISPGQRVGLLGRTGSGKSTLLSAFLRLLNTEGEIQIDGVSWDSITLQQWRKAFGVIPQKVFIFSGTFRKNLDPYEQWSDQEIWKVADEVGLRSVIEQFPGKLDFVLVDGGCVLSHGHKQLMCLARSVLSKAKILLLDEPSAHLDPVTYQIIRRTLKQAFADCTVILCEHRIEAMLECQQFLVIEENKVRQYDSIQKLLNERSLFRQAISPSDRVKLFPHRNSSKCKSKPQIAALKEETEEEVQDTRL
T2 sequence (P13569 with tags, fused parts or gaps DEL508-508): as above

Turning to `Cc1ccc(F)cc1-c1nc(NS(=O)(=O)c2cccc(N3CCN[C@H](C)C3)n2)ccc1C(F)(F)F` [Example 176, (R)—N-(6-(5-fluoro-2-methylphenyl)-5-(trifluoromethyl)pyridin-2-yl)-6-(3-methylpiperazin-1-yl)pyridine-2-sulfonamide Hydrochloride], in test [1], the Emax was determined as 529% and the EC50 is 3420 nM. Further, on delF508-CFTR, the “MTECC24 CFHBEC- Amax %” value is 69.8% and the EC50 was 224 nM.

Turning to `CCOC(=O)C1(C)CCN(c2cccc(S(=O)(=O)Nc3ccc(Cl)c(-c4c(C)cccc4C)n3)n2)CC1` [Example 249, ethyl 1-(6-(N-(5-chloro-6-(2,6-dimethylphenyl)pyridin-2-yl)sulfamoyl)pyridin-2-yl)-4-methylpiperidine-4-carboxylate], the EC50 in test [1] is 1520 nM. On delF508-CFTR, the “MTECC24 CFHBEC- Amax %” value was 79.6% and the EC50 amounted to 6.7 nM.

On to `Cc1ccccc1-c1nc(NS(=O)(=O)c2cccc(N3CCC(C(=O)O)CC3)n2)ccc1C(F)(F)F` [Example 344, 1-(6-{[6-(2-methylphenyl)-5-(trifluoromethyl)pyridin-2-yl]sulfamoyl}pyridin-2-yl)piperidine-4-carboxylic Acid], for which, in test [1], the Emax turned out to be 132% and the EC50 came to 2810 nM. Also, on delF508-CFTR, the “MTECC24 CFHBEC- Amax %” value is 46.7% and the EC50 was 22.8 nM.

As to `COc1ccc(Cl)c(-c2nc(NS(=O)(=O)c3cccc(N4CC(O)C4)n3)ccc2C(F)(F)F)c1` [Example 226, N-(6-(2-chloro-5-methoxyphenyl)-5-(trifluoromethyl)pyridin-2-yl)-6-(3-hydroxyazetidin-1-yl)pyridine-2-sulfonamide], in test [1], the Emax came out at 721% and the EC50 turned out to be 2400 nM. In addition, at delF508-CFTR, the “MTECC24 CFHBEC- Amax %” value was found to be 83.5% and the concentration for a half-maximal effect (EC50) is 12.9 nM.

Take `O=S(=O)(Nc1ccc(Cl)c(-c2cccc(F)c2Cl)n1)c1cccc(N2CC(O)C2)n1` [Example 229, N-(5-chloro-6-(2-chloro-3-fluorophenyl)pyridin-2-yl)-6-(3-hydroxyazetidin-1-yl)pyridine-2-sulfonamide]: in test [1], the Emax was 341% and the EC50 worked out at 4290 nM. Moreover, on delF508-CFTR, the “MTECC24 CFHBEC- Amax %” value came to 69.0% and the EC50 stood at 53.3 nM.

For `Cc1c(F)cccc1-c1nc(NS(=O)(=O)c2cccc(N)n2)ccc1Cl` [Example 12, 6-amino-N-(5-chloro-6-(3-fluoro-2-methylphenyl)pyridin-2-yl)pyridine-2-sulfonamide], in test [1], the Emax came out at 555% and the EC50 turned out to be 1320 nM. Further, at delF508-CFTR, the “MTECC24 CFHBEC- Amax %” value stood at 85.2% and the EC50 came to 9.7 nM.

Regarding `Cc1cccc(C)c1-c1nc(NS(=O)(=O)c2cccc(O[C@@H]3CO[C@H](CO)C3)n2)ccc1Cl` [Example 288, N-[5-chloro-6-(2,6-dimethylphenyl)pyridin-2-yl]-6-{[(3S,5S)-5-(hydroxymethyl)oxolan-3-yl]oxy}pyridine-2-sulfonamide], in test [1], the Emax stood at 495% and the EC50 was found to be 1710 nM. In addition, on delF508-CFTR, the “MTECC24 CFHBEC- Amax %” value came out at 69.5% and the EC50 was 34.1 nM.

Regarding `Cc1ccc(F)cc1-c1nc(NS(=O)(=O)c2cccc(N3CCN[C@@H](CO)C3)n2)ccc1C(F)(F)F` [Example 174, (R)—N-(6-(5-fluoro-2-methylphenyl)-5-(trifluoromethyl)pyridin-2-yl)-6-(3-(hydroxymethyl)piperazin-1-yl)pyridine-2-sulfonamide Hydrochloride], in test [1], the Emax worked out at 515% and the EC50 is 2640 nM. In addition, on delF508-CFTR, the “MTECC24 CFHBEC- Amax %” value is given as 57.1% and the EC50 turned out to be 207 nM.

Take `Cc1c(F)cccc1-c1nc(NS(=O)(=O)c2cccc(N3CCCC(C)(C(=O)O)C3)n2)ccc1C(F)(F)F` (stereo not shown) [Example 362, 1-(6-{[6-(3-fluoro-2-methylphenyl)-5-(trifluoromethyl)pyridin-2-yl]sulfamoyl}pyridin-2-yl)-3-methylpiperidine-3-carboxylic Acid]: the EC50 in test [1] is 2000 nM. On delF508-CFTR, the “MTECC24 CFHBEC- Amax %” value was 77.9% and the EC50 stood at 0.533 nM.

Regarding `Cc1cccc(C)c1-c1nc(NS(=O)(=O)c2cccc(N3CCC(C)(C(=O)O)CC3)n2)ccc1Cl` [Example 250, 1-(6-(N-(5-chloro-6-(2,6-dimethylphenyl)pyridin-2-yl)sulfamoyl)pyridin-2-yl)-4-methylpiperidine-4-carboxylic Acid], in test [1], the Emax was 744% and the EC50 came out at 1830 nM. Besides, at delF508-CFTR, the “MTECC24 CFHBEC- Amax %” value turned out to be 59.4% and the EC50 was 11 nM.

Turning to `Cc1ccccc1-c1nc(NS(=O)(=O)c2cccc(N3CCNCC3)n2)ccc1C(F)(F)F` [Example 161, 6-(piperazin-1-yl)-N-(6-(o-tolyl)-5-(trifluoromethyl)pyridin-2-yl)pyridine-2-sulfonamide (HCl Salt)], in test [1], the Emax worked out at 222% and the EC50 worked out at 2900 nM. In addition, on delF508-CFTR, the “MTECC24 CFHBEC- Amax %” value worked out at 88.2% and the EC50 amounted to 91.6 nM.

Turning to `Cc1ccccc1-c1nc(NS(=O)(=O)c2cccc(N[C@H]3C[C@@H](O)C3)n2)ccc1C(F)(F)F` [Example 283, N-[6-(2-methylphenyl)-5-(trifluoromethyl)pyridin-2-yl]-6-{[(1s,3s)-3-hydroxycyclobutyl]amino}pyridine-2-sulfonamide], the EC50 came to 1590 nM in test [1] and 0.8 nM on delF508-CFTR. Besides, the “MTECC24 CFHBEC- Amax %” value at delF508-CFTR amounted to 84.0%.

Regarding `Cc1ccccc1-c1nc(NS(=O)(=O)c2cccc(OC3CC(C(=O)O)C3)n2)ccc1C(F)(F)F` (mixture of isomers) [Example 331, 3-((6-(N-(6-(o-tolyl)-5-(trifluoromethyl)pyridin-2-yl)sulfamoyl)pyridin-2-yl)oxy)cyclobutanecarboxylic Acid], in test [1], the Emax came to 218% and the EC50 was 1520 nM. In addition, on delF508-CFTR, the “MTECC24 CFHBEC- Amax %” value is 67.4% and the EC50 was found to be 64.9 nM.

Turning to `Cc1ccccc1-c1nc(NS(=O)(=O)c2cccc(N3CCNC(=O)C3)n2)ccc1C(F)(F)F` [Example 190, 6-(3-oxopiperazin-1-yl)-N-(6-(o-tolyl)-5-(trifluoromethyl)pyridin-2-yl)pyridine-2-sulfonamide], in test [1], the Emax was 565% and the EC50 came out at 3410 nM. Also, on delF508-CFTR, the “MTECC24 CFHBEC- Amax %” value is 64.5% and the EC50 was 13.2 nM.

With `Cc1ccccc1-c1nc(NS(=O)(=O)c2cccc(O[C@@H]3COC[C@@H]3O)n2)ccc1C(F)(F)F` (racemic) [Example 291, rac-6-{[(3RS,4SR)-4-hydroxyoxolan-3-yl]oxy}-N-[6-(2-methylphenyl)-5-(trifluoromethyl)pyridin-2-yl]pyridine-2-sulfonamide], in test [1], the Emax stood at 496% and the EC50 is 2500 nM. Also, on delF508-CFTR, the “MTECC24 CFHBEC- Amax %” value worked out at 73.6% and the EC50 is 13.3 nM.

On to `CC1(O)CN(c2cccc(S(=O)(=O)Nc3ccc(C(F)(F)F)c(-c4ccccc4Cl)n3)n2)C1` [Example 221, N-(6-(2-chlorophenyl)-5-(trifluoromethyl)pyridin-2-yl)-6-(3-hydroxy-3-methylazetidin-1-yl)pyridine-2-sulfonamide], for which, in test [1], the Emax was determined as 552% and the EC50 was found to be 1320 nM. Also, on delF508-CFTR, the “MTECC24 CFHBEC- Amax %” value amounted to 63.5% and the EC50 worked out at 7 nM.

Regarding `Cc1ccccc1-c1nc(NS(=O)(=O)c2cccc(N3CC[C@H](O)[C@H]3C)n2)ccc1C(F)(F)F` [Example 314, 6-((2R,3S)-3-hydroxy-2-methylpyrrolidin-1-yl)-N-(6-(o-tolyl)-5-(trifluoromethyl)pyridin-2-yl)pyridine-2-sulfonamide], the EC50 in test [1] stood at 1590 nM. Also, at delF508-CFTR, the “MTECC24 CFHBEC- Amax %” value is 96.4% and the EC50 was determined as 10 nM.

For `O=S(=O)(Nc1ccc(C(F)(F)F)c(-c2ccc(F)cc2Cl)n1)c1cccc(N2CC(O)C2)n1` [Example 225, N-(6-(2-chloro-4-fluorophenyl)-5-(trifluoromethyl)pyridin-2-yl)-6-(3-hydroxyazetidin-1-yl)pyridine-2-sulfonamide], in test [1], the Emax turned out to be 361% and the half-maximal effective concentration (EC50) amounted to 2740 nM. Also, at delF508-CFTR, the “MTECC24 CFHBEC- Amax %” value was 87.7% and the EC50 worked out at 17.6 nM.

As for `Cc1ccccc1-c1nc(NS(=O)(=O)c2cccc(N3CCN(CCO)CC3)n2)ccc1C(F)(F)F` [Example 182, 6-(4-(2-hydroxyethyl)piperazin-1-yl)-N-(6-(o-tolyl)-5-(trifluoromethyl)pyridin-2-yl)pyridine-2-sulfonamide Hydrochloride], in test [1], the Emax is 485% and the EC50 came to 3220 nM. At delF508-CFTR, the “MTECC24 CFHBEC- Amax %” value amounted to 89.6% and the EC50 was found to be 87.8 nM.

As for `Cc1ccccc1-c1nc(NS(=O)(=O)c2cccc(N3CC(O)(C(F)(F)F)C3)n2)ccc1C(F)(F)F` [Example 204, 6-(3-hydroxy-3-(trifluoromethyl)azetidin-1-yl)-N-(6-(o-tolyl)-5-(trifluoromethyl)pyridin-2-yl)pyridine-2-sulfonamide], in test [1], the Emax came to 943% and the EC50 was determined as 1730 nM. At delF508-CFTR, the “MTECC24 CFHBEC- Amax %” value is 90.6% and the EC50 was 5.7 nM.
